According to PubChem BioAssay AID248 (DTP/NCI, 2004):
Values joined by “and” are separate entries in the source; they are usually repeats but may differ in a detail not shown here. Identical values can stand only once. Toxic doses and inconclusive results are not listed. No stated cut-off is given here; in the data, active means T/C of 150% or more; inactive means T/C below 125%.

Tested on: L1210 leukemia ip in BDF1 mice, survival T/C
Assay: NCI In Vivo Anticancer Drug Screen. Data for tumor model L1210 Leukemia (intraperitoneal) in B6D2F1 (BDF1) mice
Settings: endpoint: mean survival time, higher = longer survival
Summary of the method: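 Transplantable tumor model; survival measured in treated vs vehicle control mice. Value = treated/control.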

[1] = dose: 100.0 mg/kg/injection, schedule: Q01DX001 (ip), vehicle: carboxymethylcellulose (CMC)
[2] = dose: 400.0 mg/kg/injection, schedule: Q01DX001 (ip), vehicle: carboxymethylcellulose (CMC)
[3] = dose: 100.0 mg/kg/injection, schedule: Q01DX001 (ip), vehicle: saline
[4] = dose: 200.0 mg/kg/injection, schedule: Q01DX001 (ip), vehicle: saline
[5] = dose: 400.0 mg/kg/injection, schedule: Q01DX001 (ip), vehicle: saline
[6] = dose: 100.0 mg/kg/injection, schedule: Q01DX009 (ip), vehicle: saline
[7] = dose: 100.0 mg/kg/injection, schedule: Q04DX003 (ip), vehicle: saline
[8] = dose: 200.0 mg/kg/injection, schedule: Q04DX003 (ip), vehicle: saline
[9] = dose: 400.0 mg/kg/injection, schedule: Q04DX003 (ip), vehicle: saline
[10] = dose: 100.0 mg/kg/injection, schedule: Q04DX003 (ip), vehicle: Klucel (hydroxypropylcellulose) (HPC)
[11] = dose: 200.0 mg/kg/injection, schedule: Q04DX003 (ip), vehicle: Klucel (hydroxypropylcellulose) (HPC)
[12] = dose: 25.0 mg/kg/injection, schedule: Q01DX009 (ip), vehicle: saline
[13] = dose: 50.0 mg/kg/injection, schedule: Q01DX009 (ip), vehicle: saline

Measured: T/C

O=C1OC(c2cccc(Cl)c2)=N/C1=C\C=C/c1ccccc1
inactive: [1] 95 % of control | dose: 100.0 mg/kg/injection, schedule: Q01DX009 (ip), vehicle: carboxymethylcellulose (CMC) 89 % of control and 92 % of control | dose: 200.0 mg/kg/injection, schedule: Q01DX009 (ip), vehicle: carboxymethylcellulose (CMC) 87 % of control and 92 % of control | [2] 93 % of control

CCOC(=O)NNC(=O)CN
inactive: dose: 75.0 mg/kg/injection, schedule: Q01DX001 (ip), vehicle: saline 104 % of control

CCCCCCCCCCNC(=O)C[n+]1cccc(C(=O)N(CC)CC)c1
inactive: dose: 6.25 mg/kg/injection, schedule: Q04DX003 (ip), vehicle: saline 94 % of control | dose: 12.5 mg/kg/injection, schedule: Q04DX003 (ip), vehicle: saline 96 % of control | dose: 25.0 mg/kg/injection, schedule: Q04DX003 (ip), vehicle: saline 93 % of control

CCCCN=C=NCCCN(C)C
inactive: dose: 62.5 mg/kg/injection, schedule: Q04DX003 (ip), vehicle: Klucel (hydroxypropylcellulose) (HPC) 103 % of control | dose: 125.0 mg/kg/injection, schedule: Q04DX003 (ip), vehicle: Klucel (hydroxypropylcellulose) (HPC) 96 % of control | dose: 250.0 mg/kg/injection, schedule: Q04DX003 (ip), vehicle: Klucel (hydroxypropylcellulose) (HPC) 92 % of control

CCCCCCCCCCCC(c1ccccc1)N(C)C (configuration not stated)
inactive: dose: 50.0 mg/kg/injection, schedule: Q01DX001 (ip), vehicle: saline 98 % of control | [3] 93 % of control | [4] 93 % of control | [5] 93 % of control

COc1ccccc1NC(=O)c1cc2ccccc2cc1O
inactive: [6] 109 % of control | [7] 100 % of control | dose: 200.0 mg/kg/injection, schedule: Q01DX009 (ip), vehicle: saline 104 % of control | [8] 100 % of control | dose: 400.0 mg/kg/injection, schedule: Q01DX009 (ip), vehicle: saline 100 % of control | [9] 98 % of control

C[Si](C)(C)C1C=Cc2ccccc2C1[Si](C)(C)C (configuration not stated)
inactive: dose: 100.0 mg/kg/injection, schedule: Q01DX009 (ip), vehicle: saline with Tween-80 94 % of control | dose: 200.0 mg/kg/injection, schedule: Q01DX009 (ip), vehicle: saline with Tween-80 91 % of control | dose: 400.0 mg/kg/injection, schedule: Q01DX009 (ip), vehicle: saline with Tween-80 94 % of control

O=C(Cc1cccc2ccccc12)NO
inactive: dose: 100.0 mg/kg/injection, schedule: Q01DX009 (ip), vehicle: Klucel (hydroxypropylcellulose) (HPC) 95 % of control | [10] 95 % of control | dose: 200.0 mg/kg/injection, schedule: Q01DX009 (ip), vehicle: Klucel (hydroxypropylcellulose) (HPC) 102 % of control | [11] 95 % of control | dose: 400.0 mg/kg/injection, schedule: Q01DX009 (ip), vehicle: Klucel (hydroxypropylcellulose) (HPC) 101 % of control | dose: 400.0 mg/kg/injection, schedule: Q04DX003 (ip), vehicle: Klucel (hydroxypropylcellulose) (HPC) 104 % of control

O=[N+]([O-])c1ccc(OC(=S)Cl)cc1
inactive: dose: 6.25 mg/kg/injection, schedule: Q04DX002 (ip), vehicle: saline with Tween-80 99 % of control | dose: 12.5 mg/kg/injection, schedule: Q04DX002 (ip), vehicle: saline with Tween-80 101 % of control | dose: 25.0 mg/kg/injection, schedule: Q04DX002 (ip), vehicle: saline with Tween-80 96 % of control | dose: 100.0 mg/kg/injection, schedule: Q04DX003 (ip), vehicle: saline with Tween-80 103 % of control

CCC[CH2][Sn]([Cl])([CH2]CCC)[S]C(=S)NCCNC(=S)[S][Sn]([Cl])([CH2]CCC)[CH2]CCC
inactive: dose: 6.0 mg/kg/injection, schedule: Q04DX002 (ip), vehicle: other 98 % of control | dose: 12.0 mg/kg/injection, schedule: Q04DX002 (ip), vehicle: other 117 % of control | dose: 25.0 mg/kg/injection, schedule: Q04DX002 (ip), vehicle: other 102 % of control

c1cc[c]([Ge]([CH2][CH2][Sn]([c]2ccccc2)([c]2ccccc2)[c]2ccccc2)([CH2][CH2][Sn]([c]2ccccc2)([c]2ccccc2)[c]2ccccc2)[c]2ccccc2)cc1
inactive: dose: 100.0 mg/kg/injection, schedule: Q04DX002 (ip), vehicle: saline with Tween-80 98 % of control | dose: 200.0 mg/kg/injection, schedule: Q04DX002 (ip), vehicle: saline with Tween-80 102 % of control | dose: 400.0 mg/kg/injection, schedule: Q04DX002 (ip), vehicle: saline with Tween-80 94 % of control

OC1COC(n2cnc3c(=S)nc[nH]c32)CC1O (configuration not stated)
inactive: dose: 5.0 mg/kg/injection, schedule: Q01DX001 (ip), vehicle: saline 100 % of control | dose: 10.0 mg/kg/injection, schedule: Q01DX001 (ip), vehicle: saline 103 % of control | dose: 20.0 mg/kg/injection, schedule: Q01DX001 (ip), vehicle: saline 100 % of control | dose: 40.0 mg/kg/injection, schedule: Q01DX001 (ip), vehicle: saline 95 % of control | [3] 107 % of control | [4] 108 % of control | [5] 124 % of control

CCN(CC)C(=O)C1C2C=CC(CC2)C1C(=O)N(CC)CC (configuration not stated)
inactive: [7] 100 % of control | [8] 96 % of control | [9] 96 % of control

CCCCCCSC1=C(SCCCCCC)C(=O)c2[nH]cnc2C1=O
inactive: dose: 50.0 mg/kg/injection, schedule: Q01DX001 (ip), vehicle: carboxymethylcellulose (CMC) 100 % of control | [1] 95 % of control | dose: 200.0 mg/kg/injection, schedule: Q01DX001 (ip), vehicle: carboxymethylcellulose (CMC) 90 % of control | [2] 90 % of control

CCc1cc2oc(C)c(C)c2c(N=Nc2ccc([N+](=O)[O-])cc2)c1O
inactive: dose: 100.0 mg/kg/injection, schedule: Q04DX002 (ip), vehicle: Klucel (hydroxypropylcellulose) (HPC) 102 % of control | dose: 200.0 mg/kg/injection, schedule: Q04DX002 (ip), vehicle: Klucel (hydroxypropylcellulose) (HPC) 96 % of control | dose: 400.0 mg/kg/injection, schedule: Q04DX002 (ip), vehicle: Klucel (hydroxypropylcellulose) (HPC) 99 % of control

O=[N+]([O-])c1cc([N+](=O)[O-])cc(S(=O)(=O)O)c1
inactive: [12] 106 % of control | [13] 105 % of control | [6] 100 % of control and 111 % of control | [7] 105 % of control | [8] 105 % of control

CS(=O)(=O)C(=O)O
inactive: [3] 96 % of control | [4] 101 % of control | [5] 98 % of control

c1ccc(CC2CCCC2)cc1
inactive: [10] 93 % of control | [11] 95 % of control | dose: 300.0 mg/kg/injection, schedule: Q04DX003 (ip), vehicle: Klucel (hydroxypropylcellulose) (HPC) 106 % of control

CNC(=S)n1ncnc1N
inactive: [12] 102 % of control | [13] 114 % of control | [6] 109 % of control | [7] 104 % of control
